For one experiment, the target named is T1, Protein phosphatase 1D (Homo sapiens, UniProt O15297).
T1 sequence (O15297 whole entry): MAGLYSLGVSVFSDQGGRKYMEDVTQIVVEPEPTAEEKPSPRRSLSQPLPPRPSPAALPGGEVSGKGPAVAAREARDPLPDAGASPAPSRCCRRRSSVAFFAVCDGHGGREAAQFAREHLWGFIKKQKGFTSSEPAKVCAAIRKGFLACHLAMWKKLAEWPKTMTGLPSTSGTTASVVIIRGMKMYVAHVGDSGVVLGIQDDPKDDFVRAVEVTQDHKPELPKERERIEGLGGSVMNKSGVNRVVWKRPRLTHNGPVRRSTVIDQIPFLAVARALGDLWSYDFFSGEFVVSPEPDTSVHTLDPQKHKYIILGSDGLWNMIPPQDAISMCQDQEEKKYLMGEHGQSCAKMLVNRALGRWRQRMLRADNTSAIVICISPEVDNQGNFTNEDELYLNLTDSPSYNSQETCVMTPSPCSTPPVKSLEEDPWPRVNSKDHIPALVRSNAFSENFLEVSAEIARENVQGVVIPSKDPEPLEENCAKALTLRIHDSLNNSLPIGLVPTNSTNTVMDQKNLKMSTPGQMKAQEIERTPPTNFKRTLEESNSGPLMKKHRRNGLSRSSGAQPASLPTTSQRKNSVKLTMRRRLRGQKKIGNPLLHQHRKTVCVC
Put plainly: Inhibition of PPM1D (unknown origin) phosphatase activity using peptide substrate TDDEMT*GY*VAT by malachite green/molybdate based assay.

Experiment [1] in a line: Anticancer activity against human TOV21G cells after 3 days incubation by SRB proliferation assay. Format: functional. The following applies: 72 h. (In general: Sulforhodamine B stains cellular protein and so reports cell mass.)
Experiment [2] in a line: Anticancer activity against human SMOV2 cells after 3 days incubation by SRB proliferation assay. The settings on record: SMOV2, 72 h. Format: functional.
Experiment [3] can be described thus: Anticancer activity against human TOV21G cells after 5 days incubation by SRB proliferation assay. The format is functional. The following applies: 120 h.
The nature of experiment [4]: Anticancer activity against human SMOV2 cells after 5 days incubation by SRB proliferation assay. The format is functional. The following applies: SMOV2, 120 h.
Experiment [5] in a line: Anticancer activity against PPM1D non-amplified human SMOV2 cells after 5 days incubation by SRB proliferation assay. Format: functional. The following applies: SMOV2, 120 h.
The nature of experiment [6]: Anticancer activity against PPM1D amplified human KPL1 cells after 5 days incubation by SRB proliferation assay. The format is functional. The following applies: KPL-1, 120 h.
Experiment [7] can be described thus: Anticancer activity against PPM1D non-amplified human CAMA1 cells after 5 days incubation by SRB proliferation assay. The format is functional. The following applies: CAMA-1, 120 h.
The subject of a further experiment is HeLa. In words: Anticancer activity against PPM1D non-amplified human HeLa cells after 5 days incubation by SRB proliferation assay. Format: functional. The settings on record: 120 h.
Experiment [8] can be described thus: Anticancer activity against […] human TOV21G cells after 5 days incubation by SRB proliferation assay. The format is functional. The settings on record: 120 h.
Another experiment has as its system MCF7. In words: Anticancer activity against PPM1D amplified human MCF7 cells after 5 days incubation by SRB proliferation assay. The format is functional. The following applies: MCF7, 120 h.
For experiment [9], the target named is T2, Protein phosphatase 1D (Homo sapiens) (UniProt O15297).
T2 sequence (whole entry): T1 sequence (O15297 whole entry)
The following applies: TOV21G, 1.25 to 5 uM.
Description: Inhibition of PPM1D in non-amplified human TOV21G cells assessed as increase in P-S15-p53 level at 1.25 to 5 uM after 24 hrs by Western blot analysis

For experiment [10], the target named is T2, Protein phosphatase 1D (Homo sapiens). The settings on record: SMOV2, 1.25 to 5 uM.
Description: Inhibition of PPM1D in human SMOV2 cells assessed as increase in P-S15-p53 level at 1.25 to 5 uM after 24 hrs by Western blot analysis
The next experiment relates to SMOV2. In words: Induction of apoptosis in human SMOV2 cells assessed as increase in PARP cleavage at 1.25 to 5 uM after 24 hrs by Western blot analysis. The format is functional, cell-based. On the technique in general: A western blot detects proteins with antibodies after separation by electrophoresis.
The next experiment has as its system TOV21G. Put plainly: Induction of apoptosis in […] human TOV21G cells assessed as increase in PARP cleavage at 1.25 to 5 uM after 24 hrs by Western blot analysis. Format: functional, cell-based.

Activity calls are given as the source filed them. No cut-off for these calls is given here. Bounds are passed on as bounds.

What is called IC50 is the concentration at which inhibition is half-maximal. In general, GI50 refers to the concentration giving 50% growth inhibition. Read a low GI50 as more potent growth inhibition.

In turn, `O=c1[nH]c2ccc(-c3csc(-c4ccc(F)c(O)c4)n3)cc2o1` registered a half-inhibitory concentration (IC50) against Protein phosphatase 1D below 20 µM. Moreover, the values for the GI50 in experiment [1] and in experiment [2] were above 50 µM and 1.6 µM, respectively.
For `Cc1cc(-c2nc(-c3ccc4[nH]c(=O)oc4c3)cs2)ccc1F`, in that order: below 20 µM, above 50 µM and 0.25 µM.
On to `COCCOCc1cc(F)ccc1-c1nc(-c2ccc3[nH]c(=O)oc3c2)cs1`, for which the half-maximal inhibitory concentration (IC50) against Protein phosphatase 1D is below 20 µM. Besides, the 50% growth inhibitory concentration (GI50) in experiment [1] is above 50 µM; in experiment [2], 0.002 µM.
For `Cc1cc(F)ccc1-c1nc(-c2ccc3[nH]c(=O)oc3c2)cs1`, in that order: above 100 µM, above 50 µM and 0.002 µM.
The molecule `Cc1cc(F)ccc1-c1nc(-c2ccc3c(c2)[nH]c(=O)n3CCN(C)C)cs1` came in with a half-inhibitory concentration (IC50) against Protein phosphatase 1D below 20 µM. For the same molecule, the concentration for 50% growth inhibition (GI50) in experiment [1] and in [2] was above 50 µM in each case.
In turn, `Cc1cc(F)ccc1-c1nc(-c2ccc3c(c2)CC(=O)N3)cs1` yielded a half-maximal inhibitory concentration (IC50) against Protein phosphatase 1D below 20 µM. The GI50 in experiment [1] is above 50 µM; in [2], 0.002 µM.
Consider `O=c1[nH]c2ccc(-c3csc(-c4cccc(F)c4)n3)cc2o1`, for which the GI50 was above 50 µM in [3] and 0.85 µM in experiment [4]. The same molecule displayed a half-maximal inhibitory concentration (IC50) on Protein phosphatase 1D below 20 µM.
`CN(C)CCc1cc(F)ccc1-c1nc(-c2ccc3[nH]c(=O)oc3c2)cs1` returned an IC50 against Protein phosphatase 1D below 20 µM. The 50% growth inhibitory concentration (GI50) in experiment [1] was above 50 µM; in [2] it was 0.04 µM.
For `CCc1cc(F)ccc1-c1nc(-c2ccc3[nH]c(=O)oc3c2)cs1`, in that order: below 20 µM, above 50 µM and 0.013 µM.
For `O=c1[nH]c2ccc(-c3csc(-c4ccc(F)c(C(F)(F)F)c4)n3)cc2o1`, in that order: below 20 µM, above 50 µM and above 50 µM.
Consider `O=c1[nH]c2ccc(-c3csc(-c4ccc(F)cc4CO)n3)cc2o1`, for which the IC50 against Protein phosphatase 1D is below 20 µM. The concentration for 50% growth inhibition (GI50) is above 50 µM in experiment [1] and 0.023 µM in experiment [2].
For `O=c1[nH]c2ccc(-c3csc(-c4ccc(F)c(F)c4)n3)cc2o1`, in that order: below 20 µM, above 50 µM and 0.29 µM.
As for `COCCOCc1cc(F)ccc1-c1nc(-c2ccc3[nH]c(=O)[nH]c3c2)cs1`, on Protein phosphatase 1D, the IC50 is below 20 µM. Moreover, the GI50 in experiment [5] was 20 µM; in experiment [6] it was 0.01 µM; in [7] it was 15 µM; in experiment [1] it was above 50 µM; in the experiment with HeLa, 3.9 µM; in experiment [8], 5.6 µM. For the same molecule, the GI50 worked out at 0.005 µM in the experiment with MCF7 and 0.013 µM in [2].
On to `O=c1[nH]c2ccc(-c3csc(-c4ccc(F)cc4)n3)cc2o1`, for which the GI50 was above 50 µM in experiment [3], 0.01 µM in experiment [4], above 50 µM in [1] and 0.13 µM in [2]. In [9], the inhibition result was “inactive”. The 50% inhibitory concentration (IC50) against Protein phosphatase 1D was determined as 23 µM. In experiment [10], the inhibition entry is “Active”. Also, in the experiment on SMOV2, the outcome was Active. Also, the outcome in the experiment on TOV21G was inactive.
Take `O=c1[nH]c2ccc(-c3csc(-c4ccc(Cl)cc4)n3)cc2o1`: the 50% growth inhibitory concentration (GI50) was above 50 µM in experiment [3] and 0.63 µM in [4]. On Protein phosphatase 1D, this molecule registered a half-maximal inhibitory concentration (IC50) below 20 µM.
Regarding `O=c1[nH]c2ccc(-c3csc(-c4ccc(F)cc4CN4CCOCC4)n3)cc2o1`, the IC50 against Protein phosphatase 1D was below 20 µM. The concentration for 50% growth inhibition (GI50) in experiment [1] is above 50 µM; in experiment [2] it was 0.52 µM.
At Protein phosphatase 1D, `CN(C)Cc1cc(F)ccc1-c1nc(-c2ccc3[nH]c(=O)oc3c2)cs1` gave an IC50 below 20 µM. The results for the GI50 in experiment [1] and in experiment [2] were above 50 µM and 0.01 µM, respectively.
In turn, `COc1cc(F)ccc1-c1nc(-c2ccc3[nH]c(=O)oc3c2)cs1` showed an IC50 against Protein phosphatase 1D below 20 µM. Besides, the 50% growth inhibitory concentration (GI50) is above 50 µM in [1] and 5.7 µM in experiment [2].
The matching figures for `Cc1cc(F)ccc1-c1nc(-c2ccc3[nH]c(=O)[nH]c3c2)cs1`: below 20 µM, above 50 µM and 0.001 µM.
As to `NCCOCc1cc(F)ccc1-c1nc(-c2ccc3[nH]c(=O)oc3c2)cs1`, the IC50 against Protein phosphatase 1D was below 20 µM. In addition, the GI50 is above 50 µM in [1] and 0.003 µM in experiment [2].
In the case of `N#Cc1ccc(-c2nc(-c3ccc4[nH]c(=O)oc4c3)cs2)cc1`, the GI50 was above 50 µM in experiment [3] and 2 µM in [4]. Further, the IC50 against Protein phosphatase 1D is below 20 µM.
For `Cc1ccc(-c2nc(-c3ccc4[nH]c(=O)oc4c3)cs2)cc1`, in that order: above 50 µM, 24 µM and below 20 µM.
For `O=c1[nH]c2ccc(-c3csc(-c4ccncc4)n3)cc2o1`, in that order: above 50 µM, 2.8 µM and below 20 µM.
On to `O=c1[nH]c2ccc(-c3csc(-c4ccccc4)n3)cc2o1`, for which the GI50 in experiment [3] was above 50 µM; in [4], 2 µM. In addition, the IC50 on Protein phosphatase 1D is below 20 µM.
As for `O=c1[nH]c2ccc(-c3csc(-c4ccc(F)cc4COCCN4CCCC4)n3)cc2o1`, on Protein phosphatase 1D, the half-inhibitory concentration (IC50) was below 20 µM. Further, the GI50 in [1] is above 50 µM; in experiment [2], 0.013 µM.
For the molecule `Cc1cc(F)ccc1-c1nc(-c2ccc3[nH]c(=O)n(CCN(C)C)c3c2)cs1`, the IC50 at Protein phosphatase 1D was below 20 µM. Further, the GI50 in [1] is above 50 µM; in experiment [2] it was 0.003 µM.

(Values after ChEMBL document CHEMBL3352140, “Targeting the PPM1D phenotype; 2,4-bisarylthiazoles cause highly selective apoptosis in PPM1D amplified cell-lines” (Bioorg Med Chem Lett, 2014).)
